{"source": "paper PMC8639922", "about": "“KSHV transactivator-derived small peptide traps coactivators to attenuate MYC and inhibits leukemia and lymphoma cell growth” (Communications Biology, 2021)", "tested_on": "BC-1 cells", "experiment": "MTT assay, deletion and mutant peptides", "type": "cell-based, human", "description": "Fig. 2 Viral and cellular responses to K-Rta peptide; identification of VGN50. a Protein sequence alignment. Homologous protein sequences were searched for with BLAST and extracted from other gamma-herpesviral homologs. The consensus protein sequence is depicted at the bottom of table. b Peptide design. Deletion peptides were designed based on the consensus sequence in a. The TAT protein sequence was used as a cell-penetrating peptide (CPP) and placed downstream from the K-Rta protein sequence. (d-R) D amino acid arginine, (ORN) ornithine, (bAla) beta alanine. c Sub cellular peptide localization. Cy5-labeled peptide 1 was used to track subcellular localization. Nuclei were visualized by DAPI staining. The scale is indicated in the panel. d MTT assays with deletion and mutant peptides. Peptide listed in b were incubated with BC-1 cells and MTT conversion was measured 48 h after incubation. The OD of mock-treated samples were set as 100%, and OD from detergent-treated cells were set as 0%. The amount of each peptide used for incubation is depicted along the x-axis. Mean percentage viability ±SD were calculated for each treatment group (n = 3 samples). Peptide 1 was renamed as VGN50. e Flow cytometry analyses of cell proliferation and apoptosis induction. Cells were incubated with VGN50 or mutant peptide (three alanine substitutions) for 24 h followed by measurements of percentage cell proliferation (Ki67 staining) and apoptosis induction (Annexin V staining). Standard deviation bars are included. (n = 3) Two-way Anova, followed by Sidak’s multiple comparisons test. f The effect of VGN50 on various cancer cell types. MTT assays were performed with the indicated cell lines treated with various VGN50 concentrations. The OD of mock-treated samples were set as 100%, and OD from detergent-treated cells were set as 0%. Mean percentage viability ±SD was calculated for each treatment (n = 3 samples/treatment). g Viability assay with flow cytometry. Cell viability was measured in triplicate with live/dead staining and the cell killing effects on cancer cells was compared with normal peripheral blood mononuclear cells (PBMC) from three healthy donors. Results are presented as mean percentage viability ±SD (n = 3 samples/group). f, g Ordinary one-way Anova, followed by Tukey’s multiple comparisons test. […]\nLeukoreduction system chambers (LRS) from healthy donors were purchased from Vitalant. […] Cell death, apoptosis, and proliferation were analyzed by flow cytometry (BD Acuri) after intracellular staining with anti-humanKi67-Alexa488 (Biolegend, 1:100) along with the isotype control antibody, annexin-V-FITC with 7-AAD staining (Biolegend) according to the manufacture’s protocol, Live/dead Fixable Red Dead Cell staining kit (Invitrogen) according to the manufacture’s protocol, or MTT assay. […]"}
{"smiles": "CC[C@H](C)[C@H](NC(=O)[C@H](CO)NC(=O)[C@H](CO)NC(=O)[C@H](CC(C)C)NC(=O)[C@H](CC(C)C)NC(=O)[C@H](C)NC(=O)[C@H](CC(=O)O)NC(=O)[C@H](CC(=O)O)NC(=O)CCNC(=O)[C@H](CCCNC(=N)N)NC(=O)[C@H](CCCNC(=N)N)NC(=O)[C@H](CCCNC(=N)N)NC(=O)[C@H](CCCN)NC(=O)[C@H](CCCNC(=N)N)NC(=O)[C@H](CCCNC(=N)N)NC(=O)[C@H](CCCCN)NC(=O)[C@H](CCCCN)NC(=O)[C@H](N)CCCNC(=N)N)C(=O)N[C@@H](CC(C)C)C(=O)N[C@@H](CCC(N)=O)C(=O)NCC(=O)N[C@@H](CC(C)C)C(=O)N[C@@H](Cc1ccc(O)cc1)C(=O)O", "note": "[Pep 4]", "values": [{"measurement": "Fold less effective compared to Pep 1 and 3 (MTT)", "setting": "BC-1", "result": "~ 4 fold"}]}
{"smiles": "CC[C@H](C)[C@H](NC(=O)[C@H](CO)NC(=O)[C@H](CO)NC(=O)CCNC(=O)[C@H](CCCNC(=N)N)NC(=O)[C@H](CCCNC(=N)N)NC(=O)[C@H](CCCNC(=N)N)NC(=O)[C@H](CCCN)NC(=O)[C@H](CCCNC(=N)N)NC(=O)[C@H](CCCNC(=N)N)NC(=O)[C@H](CCCCN)NC(=O)[C@H](CCCCN)NC(=O)[C@H](N)CCCNC(=N)N)C(=O)N[C@@H](CC(C)C)C(=O)N[C@@H](CCC(N)=O)C(=O)NCC(=O)N[C@@H](CC(C)C)C(=O)N[C@@H](Cc1ccc(O)cc1)C(=O)N[C@@H](CCC(N)=O)C(=O)N[C@@H](CC(C)C)C(=O)N[C@@H](CC(=O)O)C(=O)N[C@H](C(=O)O)[C@@H](C)O", "note": "[Pep 2]", "values": [{"measurement": "Reduction of cell viability (MTT) compared to untreated control", "setting": "BC-1, 64 μM", "result": 20, "unit": "%"}]}
{"smiles": "CC[C@H](C)[C@H](NC(=O)[C@H](CO)NC(=O)[C@H](CO)NC(=O)[C@H](CC(C)C)NC(=O)[C@H](CC(C)C)NC(=O)[C@H](C)NC(=O)[C@H](CC(=O)O)NC(=O)CCNC(=O)[C@H](CCCNC(=N)N)NC(=O)[C@H](CCCNC(=N)N)NC(=O)[C@H](CCCNC(=N)N)NC(=O)[C@H](CCCN)NC(=O)[C@H](CCCNC(=N)N)NC(=O)[C@H](CCCNC(=N)N)NC(=O)[C@H](CCCCN)NC(=O)[C@H](CCCCN)NC(=O)[C@H](N)CCCNC(=N)N)C(=O)N[C@@H](CC(C)C)C(=O)N[C@@H](CCC(N)=O)C(=O)NCC(=O)N[C@@H](CC(C)C)C(=O)N[C@@H](Cc1ccc(O)cc1)C(=O)N[C@@H](CCC(N)=O)C(=O)N[C@@H](CC(C)C)C(=O)N[C@@H](CC(=O)O)C(=O)N[C@H](C(=O)O)[C@@H](C)O", "note": "[Pep 3]", "values": [{"measurement": "Reduction of cell viability (MTT) compared to untreated control", "setting": "BC-1, 16 µM", "result": 90, "unit": "%"}]}
